Measurements: paper PMC10631261 (Chemical Science, 2023)
Where two headings read alike, the source gives them in different places.

Key:
EGLN3 [1] = assay: qRT-PCR of EGLN3 expression in 786-O cells; type: cell-based; settings: VHL-deficient 786-O cells
Protocol: (§1) 4. Methods for cell studies […]
(§2) in Minimum Essential Medium (MEM, GIBCO) with 10% fetal bovine serum (FBS, BI), 100 U/mL penicillin and 100 μg/mL streptomycin (1 × P/S, NCM Biotech). […]
(§3) and 100 μg/mL streptomycin (1 × P/S, NCM Biotech).
(§4) Quantitative PCR Analysis of Gene Expression […]
(§5) treated with vehicle (DMSO) or an inhibitor (at the concentrations indicated) for 12 h. Total RNA was isolated from cells and tissues using Trizol regents (Vazyme, China). 1 μg RNA was used for reverse transcription using HiScript III RT SuperMix for qPCR (Vazyme, China). cDNAs were amplified in a ChamQ Universal SYBR qPCR Master Mix (Vazyme, China). Quantitative PCR (qPCR) was performed on […]
(§6) a ABI QuantStudio 3 system.
(§7) The relative amount of mRNA was calculated after
(§8) 3T3-L1 derived adipocytes. […]

EPO = assay: qRT-PCR of EPO expression in Hep3B cells; type: cell-based, human
Protocol: as §1, §2, §3, §4, §5, §6, §7, §8

SLC2A1 = assay: qRT-PCR of SLC2A1 expression in Hep3B cells; type: cell-based, human
Protocol: as §1, §2, §3, §4, §5, §6, §7, §8

PHD2 = PHD2 (Homo sapiens, UniProt Q9GZT9); assay: biochemical
PHD2, sequence (Q9GZT9 181-426): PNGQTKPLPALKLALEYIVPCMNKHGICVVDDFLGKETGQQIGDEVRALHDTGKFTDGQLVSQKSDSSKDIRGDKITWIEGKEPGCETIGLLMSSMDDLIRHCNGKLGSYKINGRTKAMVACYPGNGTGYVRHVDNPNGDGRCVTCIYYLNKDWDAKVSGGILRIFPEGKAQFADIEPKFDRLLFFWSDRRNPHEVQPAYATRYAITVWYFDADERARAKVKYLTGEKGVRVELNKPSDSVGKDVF
Protocol: (§9) 3. Biochemical procedures
(§10) Protein production and purification
(§11) PAGE analysis) according to established procedures.
(§12) FIH, PHD2, AspH, JMJD5 and KDM4A inhibition assays
(§13) The in vitro FIH,1, 2 PHD2,1 AspH,38 JMJD536 and KDM4A39 inhibition assays were performed as […]
(§14) KDM4A). Synthetic peptide substrates were used: HIF-1α C-terminal transactivation domain fragment […]
(§15) H3Lys9 bearing three methyl groups at the N ϵ position, H3Lys4 substituted by an Ala and H3Lys14 substituted by an Ile residue) for KDM4A.39 Peptides were prepared as C-terminal amides by GL Biochem (Shanghai) Ltd. Peptide hydroxylation in the case of FIH, PHD2, AspH and JMJD5 (+16 Da mass shift) or peptide demethylation in the case of KDM4A ( -14 Da mass shift) was monitored by SPE-MS. […]

EGLN3 [2] = assay: qRT-PCR of EGLN3 expression in Hep3B cells; type: cell-based, human
Protocol: as §1, §2, §3, §4, §5, §6, §7, §8

FIH = molecular target: T1, FIH (Homo sapiens, UniProt Q9NWT6); assay: SPE-MS FIH inhibition assay; type: biochemical
T1 construct: made in house
T1 sequence (Q9NWT6 whole entry): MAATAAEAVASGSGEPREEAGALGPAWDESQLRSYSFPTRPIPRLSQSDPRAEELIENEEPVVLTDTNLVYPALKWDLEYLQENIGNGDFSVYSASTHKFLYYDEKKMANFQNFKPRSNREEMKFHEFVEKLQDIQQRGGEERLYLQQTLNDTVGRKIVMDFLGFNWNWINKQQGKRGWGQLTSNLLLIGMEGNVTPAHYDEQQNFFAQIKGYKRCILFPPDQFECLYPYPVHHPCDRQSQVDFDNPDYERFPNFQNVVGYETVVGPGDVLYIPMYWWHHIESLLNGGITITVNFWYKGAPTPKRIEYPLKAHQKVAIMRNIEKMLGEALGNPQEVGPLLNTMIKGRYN
Protocol: as §10, §11, §12, §13, §14, §15

KDM4A = KDM4A (Homo sapiens, UniProt O75164); assay: biochemical; type: biochemical
KDM4A, sequence (O75164 1-359): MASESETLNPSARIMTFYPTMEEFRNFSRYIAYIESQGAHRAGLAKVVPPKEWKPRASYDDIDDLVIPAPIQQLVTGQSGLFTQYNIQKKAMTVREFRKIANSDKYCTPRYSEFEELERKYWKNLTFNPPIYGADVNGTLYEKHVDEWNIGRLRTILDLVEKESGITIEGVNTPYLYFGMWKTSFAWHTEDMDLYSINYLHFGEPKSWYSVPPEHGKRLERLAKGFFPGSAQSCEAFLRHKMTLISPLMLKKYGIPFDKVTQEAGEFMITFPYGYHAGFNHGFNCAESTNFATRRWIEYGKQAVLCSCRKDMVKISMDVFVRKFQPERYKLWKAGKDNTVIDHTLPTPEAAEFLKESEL
From the text: (§16) To investigate the potential of BNS for selective FIH inhibition, its selectivity was investigated with respect to other 2OG-dependent protein oxidising enzymes, that is PHD2, Jumonji-C domain-containing protein 5 (JMJD5), aspartate/asparagine-β-hydroxylase (AspH) and KDM4A, using reported SPE-MS inhibition assays.[58,61,69,70] In addition to PHD2 and KDM4A, we included AspH and JMJD5 in our selectivity studies, because AspH, like FIH, catalyses protein aspartate- and asparagine-residue hydroxylation (although in epidermal growth factor-like domains),[71,72] and because JMJD5 is structurally closely related to FIH.[73,74]
as §9, §10, §11, §12, §13, §14, §15

CA9 = assay: qRT-PCR of CA9 expression in Hep3B cells; type: cell-based, human
Protocol: as §1, §2, §3, §4, §5, §6, §7, §8

[3] = test system: 3T3-L1 derived adipocytes; type: cell-based
Protocol: as §1, §2
(§17) and 100 μg/mL streptomycin (1 × P/S, NCM Biotech). […]
(§18) 3T3-L1 derived adipocytes.
(§19) 10% newborn calf serum (NCS, GIBCO), 100 U/mL penicillin and 100 μg/mL streptomycin (1 × P/S, NCM […]
(§20) The 3T3-L1 cells were strictly subcultured before they
(§21) Subcultures of 3T3 -L1 cells were routinely cultured in DMEM medium containing 10% NCS for two days, and then the cells were cultured in DMEM containing 10% FBS, 0.5 mM 3 -isobutyl-1-methylxanthine, 1 μM dexamethasone, 10 μg/mL insulin and 2 μM rosiglitazone for another two days. Subsequently, the cells were cultured in DMEM containing 10% FBS and 10 μg/mL insulin for two days. After these procedures, the cells were maintained in DMEM containing 10% FBS. T he last induction procedure was repeated 2 -3 times until lipid droplets […]
Viability Assay for 3T3-L1 derived adipocytes.
To investigate the effect of inhibitors on adipocytes, 3T3-L1-derived adipocytes were treated with vehicle (DMSO) or with an inhibitor (at the concentrations indicated) for 48 h. Cell viability was […]
Microplate Reader (Tecan) at OD 450 nm. […]

[4] = test system: 3T3-L1 derived adipocytes; assay: Cellular triglyceride (TG) colorimetric assay; type: cell-based; settings: 50 μM
Protocol: as §1, §2, §17, §18, §19, §20
as §21, with “in” for “in DMEM containing 10% FBS. T he last induction procedure was repeated 2 -3 times until lipid droplets”
To investigate the effect of inhibitors on adipocytes, 3T3-L1-derived adipocytes were treated with vehicle (DMSO) or with an inhibitor (at the concentrations indicated) for 48 h. […]
Cellular TG level assay for 3T3 -L1 derived adipocytes.
The 3T3-L1-derived adipocytes were washed with PBS, then the cells were lysed. And then, the cellular TG level was determined by using a cellular triglyceride assay kit (Applygen, China).
Oil Red O staining for 3T3-L1 derived adipocytes.

AspH [5] = molecular target: T2, AspH (Homo sapiens, UniProt Q12797); assay: biochemical
T2 sequence (Q12797 315-758): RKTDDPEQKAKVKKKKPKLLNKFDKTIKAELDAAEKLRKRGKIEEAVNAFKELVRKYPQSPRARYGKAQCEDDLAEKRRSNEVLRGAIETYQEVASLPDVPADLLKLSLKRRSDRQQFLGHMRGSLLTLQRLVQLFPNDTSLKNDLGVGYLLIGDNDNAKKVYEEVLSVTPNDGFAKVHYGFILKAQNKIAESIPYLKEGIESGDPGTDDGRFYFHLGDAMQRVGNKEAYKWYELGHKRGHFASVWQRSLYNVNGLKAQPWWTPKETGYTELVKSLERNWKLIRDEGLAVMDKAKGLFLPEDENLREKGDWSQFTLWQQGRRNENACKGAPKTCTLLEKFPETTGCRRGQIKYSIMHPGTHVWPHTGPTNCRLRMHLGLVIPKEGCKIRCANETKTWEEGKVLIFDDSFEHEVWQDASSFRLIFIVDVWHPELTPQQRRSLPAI
From the text: as §16, §9, §10, §11, §12, §13, §14, §15

JMJD5 [6] = molecular target: T3, JMJD5 (Homo sapiens, UniProt Q8N371); assay: biochemical; settings: read-out: JMJD5 IC50
T3 sequence (Q8N371 whole entry): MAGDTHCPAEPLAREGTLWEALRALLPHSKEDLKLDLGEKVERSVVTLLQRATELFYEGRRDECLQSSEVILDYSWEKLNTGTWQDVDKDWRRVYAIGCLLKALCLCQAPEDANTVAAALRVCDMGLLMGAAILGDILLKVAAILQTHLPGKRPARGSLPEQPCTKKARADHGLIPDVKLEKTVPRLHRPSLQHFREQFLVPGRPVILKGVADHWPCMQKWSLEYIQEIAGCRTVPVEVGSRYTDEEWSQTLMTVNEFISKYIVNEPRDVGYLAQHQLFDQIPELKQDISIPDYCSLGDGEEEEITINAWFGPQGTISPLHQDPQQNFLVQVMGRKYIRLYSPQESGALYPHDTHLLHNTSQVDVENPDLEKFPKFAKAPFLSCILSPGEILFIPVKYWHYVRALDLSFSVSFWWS
From the text: as §16, §9, §10, §11, §12, §13, §14, §15

AspH [7] = molecular target: T2, AspH; settings: cited from earlier work
JMJD5 [8] = molecular target: T3, JMJD5; parameters: method as in PMID 37292060; settings: cited from earlier work

In the case of `O=C(O)Cc1csc(=NC(=O)C2CCN(S(=O)(=O)Cc3ccccc3)C2)n1O` (stereo not shown) [compound 42], the “effect on EGLN3 gene expression” value (EGLN3 [1]) is reported as “upregulation of EGLN3”, the “upregulation of EPO” value (EPO; qPCR, relative to DMSO) is reported as “no response” and the “EPO levels in combination with FG-4592 compared with FG-4592 alone” value (EPO; with FG-4592, to a lesser extent than CA9) is reported as “increase”. The “increase of SLC2A1 levels” value (SLC2A1; qPCR, relative to DMSO) was roughly 1.5 fold, the “SLC2A1 gene expression in combination with FG-4592” value (SLC2A1; with FG-4592) was “no synergistic effect” and the IC50 (PHD2) was 6.9 ± 0.5 µM. The “increase of EGLN3 expression relative to DMSO” value (EGLN3 [2]; 50 μM, 12 h, qRT-PCR) was roughly 2.5 fold, the “EGLN3 upregulation on co-administration with FG-4592 relative to compound alone” value (EGLN3 [2]; with FG-4592) was “greater increase” and the IC50 (FIH) was 0.28 ± 0.02 µM. For the same compound, the “FIH inhibition potency relative to 2,4-PDCA (more potent)” value (FIH; IC50 comparison with 2,4-PDCA) was roughly 10 fold, the “selectivity for FIH inhibition over AspH inhibition” value (FIH; as judged by IC50 values) was greater than 100 fold and the “selectivity for FIH inhibition over JMJD5 inhibition” value (FIH; as judged by IC50 values) was roughly 25 fold. The “selectivity for FIH inhibition over KDM4A inhibition” value (FIH; as judged by IC50 values) was greater than 300 fold, the “selectivity for FIH inhibition over PHD2 inhibition” value (FIH; as judged by IC50 values) was roughly 25 fold and the IC50 (KDM4A) was greater than 100 µM. For the same compound, the “upregulation of CA9” value (CA9; qPCR, relative to DMSO) was “no response”, the “CA9 levels in combination with FG-4592 compared with FG-4592 alone” value (CA9; with FG-4592) was “increase” and the “cytotoxicity (cell viability)” value [3] was “Neither 42 and 42b exhibited apparent cytotoxicity”. For the same compound, the “reduction in cellular TG levels” value [4] was roughly 30%, the IC50 (AspH [5]) was 43.1 ± 18.7 µM and the IC50 (JMJD5 [6]) was 7.2 ± 2.8 µM.

In the case of `O=C(O)C(=O)N[C@H](Cc1ccccc1)C(=O)O` [NOFD, N-oxalyl-D-phenylalanine, reference compound], the IC50 (AspH [7]) is listed as 15.5 µM, the IC50 (PHD2) is listed as greater than 100 µM and the IC50 (JMJD5 [8]) is listed as greater than 100 µM. For the same compound, the IC50 (KDM4A) was 14.1 µM.
